Measurements reported in patent publication US8592442B2, “Nilotinib HCl crystalline forms” (Teva Pharmaceutical Industries Ltd., priority 2008, dated 2013).
Structures can show the parent of a compound that is named as a salt.

Assays:
[1] = Polymorphic conversion when heated; format: physicochemical
[2] = as described in WO '870; cited from earlier work
[3] = as described in WO '870; cited from earlier work; remark: listed apart in the source

Cc1cn(-c2cc(NC(=O)c3ccc(C)c(Nc4nccc(-c5cccnc5)n4)c3)cc(C(F)(F)F)c2)cn1 [Nilotinib HCl crystalline form T17, Nilotinib HCl]
conversion to other forms when heated [1]: does not convert to other forms when heated

Cc1cn(-c2cc(NC(=O)c3ccc(C)c(Nc4nccc(-c5cccnc5)n4)c3)cc(C(F)(F)F)c2)cn1 [Nilotinib HCl form A, Nilotinib HCl]
conversion to other polymorphs when heated [2]: converted to other polymorphs

Cc1cn(-c2cc(NC(=O)c3ccc(C)c(Nc4nccc(-c5cccnc5)n4)c3)cc(C(F)(F)F)c2)cn1 [Nilotinib HCl form B, Nilotinib HCl]
solubility in IPA [3]: not soluble in IPA
